Data taken from ChEMBL document CHEMBL1201862, “PubChem BioAssay data set” (2004).
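Cells were grown in 96-well plates and exposed to each compound for 48 hours at five concentrations; endpoints were interpolated linearly between bracketing concentrations, or set to the highest concentration if not reached. The concentration for 50% growth inhibition is given as GI50.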 The source made the active and inactive calls. No stated cut-off is given here; in the data, active = GI50 up to about 1.1 µM and inactive = higher.

Assays:
Assay in all cases: NCI-60 cell line screen, 48 h
[1] = tested on: CAKI-1
[2] = tested on: HCT-116
[3] = tested on: HCT-15
[4] = tested on: HOP-62
[5] = tested on: HOP-92
[6] = tested on: HT-29
[7] = tested on: Hs-578T
[8] = tested on: KM12
[9] = tested on: MCF7
[10] = tested on: MDA-MB-231
[11] = tested on: MOLT-4
[12] = tested on: NCI-H460
[13] = tested on: NCI-H522
[14] = tested on: NCI/ADR-RES
[15] = tested on: OVCAR-5
[16] = tested on: PC-3
[17] = tested on: RXF 393
[18] = tested on: SF-539
[19] = tested on: SK-OV-3
[20] = tested on: SR

Row | Structure (SMILES) | GI50 [1] | GI50 [2] | GI50 [3] [µM] | GI50 [4] | GI50 [5] | GI50 [6] | GI50 [7] | GI50 [8] | GI50 [9] | GI50 [10] | GI50 [11] | GI50 [12] | GI50 [13] | GI50 [14] | GI50 [15] | GI50 [16] | GI50 [17] | GI50 [18] | GI50 [19] | GI50 [20]
1 | Cc1ccc(S(=O)(=O)NNC(C[N+](=O)[O-])c2ccccc2)cc1 (stereo not given) | 22.5 µM (inactive) | 4.14 µM (inactive) | 15.9 | 26.7 µM (inactive) | 39.8 µM (inactive) | 2.02 µM (inactive) | 44.4 µM (inactive) | 14.1 µM (inactive) | 3.88 µM (inactive) | 28.4 µM (inactive) | 3.56 µM (inactive) | 17.9 µM (inactive) | 23.4 µM (inactive) | 54.6 µM (inactive) | 44.8 µM (inactive) | 57.9 µM (inactive) | 2.94 µM (inactive) | 27.1 µM (inactive) | 21.9 µM (inactive) | 1.06 µM (active)
2 | COC(CNC(=O)C(C)NC(=O)C(C)NC(=O)c1ccccc1)OC (stereo not given) | > 100 µM (inactive) | > 100 µM (inactive) | > 100 | – | > 100 µM (inactive) | > 100 µM (inactive) | > 100 µM (inactive) | > 100 µM (inactive) | > 100 µM (inactive) | > 100 µM (inactive) | > 100 µM (inactive) | > 100 µM (inactive) | > 100 µM (inactive) | > 100 µM (inactive) | > 100 µM (inactive) | > 100 µM (inactive) | > 100 µM (inactive) | > 100 µM (inactive) | > 100 µM (inactive) | > 100 µM (inactive)
3 | CC1(C)CCCC(C)(C2CCC3(C)C2C(O)CC2C4(C)CCC(O)C(C)(C)C4CCC23C)O1 (stereo not given) | 42.7 µM (inactive) | > 100 µM (inactive) | > 100 | – | 76.6 µM (inactive) | 78.9 µM (inactive) | 20.7 µM (inactive) | > 100 µM (inactive) | 61.1 µM (inactive) | 34.5 µM (inactive) | 93.1 µM (inactive) | 56.6 µM (inactive) | 75.5 µM (inactive) | 55 µM (inactive) | > 100 µM (inactive) | > 100 µM (inactive) | 3.72 µM (inactive) | 42.9 µM (inactive) | 46.2 µM (inactive) | > 100 µM (inactive)
4 | CC(=O)Oc1c(-c2ccccc2)oc2ccccc12 | 1.11 µM (active) | 1.66 µM (inactive) | 1.99 | 2.42 µM (inactive) | 2.4 µM (inactive) | 2.5 µM (inactive) | 2.36 µM (inactive) | 1.09 µM (active) | 2.11 µM (inactive) | 1.45 µM (inactive) | 1.89 µM (inactive) | 0.678 µM (active) | 2.3 µM (inactive) | 2.66 µM (inactive) | 1.85 µM (inactive) | 1.53 µM (inactive) | 1.42 µM (inactive) | 1.36 µM (inactive) | – | 0.394 µM (active)
5 | Nc1c(-c2nc3ccccc3o2)sc(=S)n1-c1ccc(Cl)cc1 | 12.6 µM (inactive) | 12.3 µM (inactive) | 26.1 | 5.11 µM (inactive) | 21.7 µM (inactive) | 37.4 µM (inactive) | 12.8 µM (inactive) | 22.4 µM (inactive) | 5.07 µM (inactive) | 19.3 µM (inactive) | > 100 µM (inactive) | 23 µM (inactive) | 14 µM (inactive) | 19.3 µM (inactive) | 46.1 µM (inactive) | 21.7 µM (inactive) | 23 µM (inactive) | 11.6 µM (inactive) | 15.5 µM (inactive) | 51.5 µM (inactive)
6 | CCCCN(C)C(=O)C1=C(C)NC(C)=C(C(=O)N(C)CCCC)C1 | > 100 µM (inactive) | > 100 µM (inactive) | > 100 | > 100 µM (inactive) | > 100 µM (inactive) | > 100 µM (inactive) | > 100 µM (inactive) | > 100 µM (inactive) | > 100 µM (inactive) | > 100 µM (inactive) | > 100 µM (inactive) | > 100 µM (inactive) | > 100 µM (inactive) | > 100 µM (inactive) | > 100 µM (inactive) | > 100 µM (inactive) | > 100 µM (inactive) | > 100 µM (inactive) | > 100 µM (inactive) | 83.9 µM (inactive)
7 | CC(C)N(Cc1ccccc1)S(=O)(=O)c1nc(C(C)(C)C)n[nH]1 | > 100 µM (inactive) | > 100 µM (inactive) | > 100 | > 100 µM (inactive) | > 100 µM (inactive) | > 100 µM (inactive) | > 100 µM (inactive) | > 100 µM (inactive) | > 100 µM (inactive) | > 100 µM (inactive) | – | > 100 µM (inactive) | > 100 µM (inactive) | > 100 µM (inactive) | > 100 µM (inactive) | > 100 µM (inactive) | > 100 µM (inactive) | > 100 µM (inactive) | > 100 µM (inactive) | > 100 µM (inactive)
8 | Nc1nc(-c2ccccc2)nc2oc(-c3cccs3)nc12 | > 10 µM (inactive) | > 100 µM (inactive) | > 100 | > 100 µM (inactive) | > 100 µM (inactive) | > 100 µM (inactive) | > 100 µM (inactive) | > 100 µM (inactive) | > 100 µM (inactive) | > 100 µM (inactive) | > 100 µM (inactive) | > 100 µM (inactive) | > 100 µM (inactive) | > 100 µM (inactive) | > 100 µM (inactive) | > 100 µM (inactive) | > 100 µM (inactive) | > 100 µM (inactive) | – | > 100 µM (inactive)
